Data on 98 compounds can be found in ChEMBL document CHEMBL3507680, “University of Dundee, Gates Library screen for HepG2 cell viability”.

A short description of this data set: Human HepG2 cell viability assay in 384 well format. Type of data set: toxicity, cell-based. Set-up: dose 125 nL, time 70.5 hour; cytotoxicity at 70.5 h: concentration not given beside the values. The note with it: HepG2 cells, read-out: Inhibition.
In the case of `CN(C)CCN1CCO[C@H]2CN(C(=O)N(C)C)C[C@H]21`, the cytotoxicity at 70.5 h worked out at 24.8%.
Turning to `Cc1cc(C)cc(OCCN(C)Cc2cscn2)c1`, the cytotoxicity at 70.5 h was 0.706%.
For the compound `CN(CC(=O)NCc1ccccn1)CC1CCCN1c1cccnn1` (stereo not drawn), the cytotoxicity at 70.5 h came to 0.56%.
The value for `CC(=O)c1cnc(N(C)Cc2cc(C)cc(C)n2)nc1C` was -8.24%.
To `O=C(NCCN1CCCCCC1=O)c1ccn(-c2ccc(F)cc2)n1` belongs -6.58%; to `CC(C)C(=O)NC(Cc1cc(N(C)C)nc(C2CC2)n1)c1ccccc1` (stereo not drawn), 3.43%; to `O=C(CC1CC1)NCc1cn2c(n1)CN(Cc1cccnc1)CC2`, -8.95%.
`CSCC(C)(O)CNC(=O)Nc1ccc(C)cc1Br` (stereo not drawn): the cytotoxicity at 70.5 h was -3.05%.
The value for `CC(=O)N1CCC2(CC1)c1ncc(-c3ccc(F)cc3)n1CCN2C` was -3.18%; that for `Cc1nn(C)cc1S(=O)(=O)N[C@@H]1CCC[C@@H](n2ccnc2)[C@@H]1O` was -6.03%; that for `O=C(CSc1ccc2c(c1)OCCO2)NS(=O)(=O)c1ccccc1Cl` was -4.64%.
The value for `Cc1cc(S(=O)(=O)N2CCCc3cc(F)c(F)cc32)sc1C(=O)O` was -1.45%.
The value for `CN(C)C(=O)CO[C@H]1COCCN(C2CCOCC2)C1` was -4.86%; that for `NC(=O)c1cnc(NC2CC2)nc1CCNC(=O)CC1CCCC1` was -14.3%.
Turning to `CC1c2ncc(Cn3cncn3)n2CCN1C(=O)c1ccccn1` (stereo not drawn), the cytotoxicity at 70.5 h worked out at 31.8%.
To `COCCC(=O)N(C)Cc1nc(C(F)(F)F)cs1` belongs -1.8%; to `CCCC(C)(C)NC(=O)c1cnc(C)s1`, 2.45%.
The value for `Cc1noc(C)c1CN1C[C@H]2CNC[C@H]2C1` was -2.52%.
To `CC(C)c1ccc(C(O)CN2CCN(Cc3nccn3C)CC2)cc1` (stereo not drawn) belongs -3.6%.
`CN(C)CCN(Cc1ccc(F)cc1)C(=O)c1ccn(C)c(=O)c1`: the cytotoxicity at 70.5 h is -5.2%.
The value for `CCN(Cc1ccccc1Cl)Cn1nc(C)c2c(C)onc2c1=O` was -6.62%; that for `CC(C)(CNC1CCCN(Cc2ccccn2)C1)CN1CCOCC1` (stereo not drawn) was -12.6%; that for `CN(C)S(=O)(=O)c1ccc2c(c1)N(Cc1ccccn1)CCC2` was -1.38%.
To `CN1CC(NC(=O)CCOc2cccc(Cl)c2)CC1=O` (stereo not drawn) belongs 17.2%; to `CN(Cc1ccccn1)C(=O)Nc1cc(C(F)(F)F)c[nH]c1=O`, -1.8%; to `CC1=Nc2c(c(=O)[nH]n2C2CCCCC2)C(c2cccnc2)S1` (stereo not drawn), -12%.
The value for `CCCN1C(=O)[C@H]2CC[C@@H]1CN(S(=O)(=O)c1cccc(Cl)c1)C2` was -9.33%; that for `CN(C)[C@@H]1CCN(C(=O)Cc2ccc(F)cc2)[C@H]1Cc1cnn(C)c1` was -10.4%; that for `CN(Cc1cccc(F)c1)C(=O)c1cc2c([nH]c1=O)CCCC2=O` was 2.65%.
As to `Cc1cc(C)c2nc(C)c(C(=O)N3CCC(CCN(C)C)CC3)cc2c1`, the cytotoxicity at 70.5 h is -1.81%.
The value for `Cc1noc(C)c1CCC(=O)N[C@@H]1CCC[C@@H](Oc2cccnc2)[C@@H]1O` was -3.39%; that for `CCC1CN(C(=O)c2ccccc2C(C)=O)CCN1C(C)C` (stereo not drawn) was -4.04%; that for `COc1ccc(CNc2cnn(CC(F)F)c2)cc1` was -0.452%.
The value for `CCC(NCc1ccccc1C)c1ccccc1OCC(=O)NC` (stereo not drawn) was 25.2%; that for `Cc1cncc(C2CCCN(Cc3cccn3C)C2)n1` (stereo not drawn) was 0.452%; that for `Cc1nc(CN2C(=O)COC3(CCN(Cc4ccsc4)CC3)C2C)cs1` (stereo not drawn) was -1.09%.
As to `O=C(c1cc(C2CC2)nc2onc(-c3ccccc3)c12)N1CC(O)C1`, the cytotoxicity at 70.5 h turned out to be 16.9%.
For `CC(C)C(=O)NCCc1nc(-c2ccncc2)n[nH]1`, the cytotoxicity at 70.5 h was -2.41%.
Consider `Cc1nc(N2CCOCC2)nc2c1CCN(C(=O)C1(C#N)CC1)CC2`, for which the cytotoxicity at 70.5 h is -9.06%.
To `O=C(N[C@H]1CCCC[C@@H]1O)c1ccc(-c2nc3ccccc3[nH]2)cc1` belongs -1.28%; to `N#Cc1ccc(CN2CCN(C(=O)C3CCC3)[C@@H]3CS(=O)(=O)C[C@@H]32)cc1`, -6.79%.
To `CCS(=O)(=O)NCC(Cc1cccc(F)c1)N1CCNC1=O` (stereo not drawn) belongs 6.34%; to `Cc1nc(CCC(N)=O)cc(C2CCCCN2S(C)(=O)=O)n1` (stereo not drawn), -1.31%; to `COCCN(CC1CCCN(C2Cc3ccccc3C2)C1)C(=O)CSC` (stereo not drawn), -2.79%.
For the compound `O=C(CN1CCOCC1)N(c1ccccc1)c1ccccc1`, the cytotoxicity at 70.5 h was -11.2%.
For the compound `O=C1NC2(CCc3ccccc31)CCN(C(=O)c1ccncc1)C2` (stereo not drawn), the cytotoxicity at 70.5 h was -3.88%.
On to `CNC(=O)[C@H]1CCS(=O)(=O)[C@@H]2CN(Cc3ccc(OC)cc3)C[C@H]12`, for which the cytotoxicity at 70.5 h was -4.04%.
To `CCc1n[nH]c(C2CN(Cc3ncc(CC)o3)CCO2)n1` (stereo not drawn) belongs 51.9%; to `O=C(NC1CCC1)[C@@H]1C[C@@H]2CCN(Cc3ccncc3)C[C@H]2O1`, -4.89%.
To `COc1ncccc1CNC(=O)Nc1cc(C)nn1C` belongs -7.29%; to `CCn1ncc2c1CCCC2NCc1cccc2c1OCCO2` (stereo not drawn), -13.8%; to `Cn1ccc(CN2CCCC23CCN(Cc2cccc(F)c2)CC3)n1`, 0.351%.
On to `CCc1nc(C(=O)N2CCN(C)CC2C)nn1-c1ccccc1Cl` (stereo not drawn), for which the cytotoxicity at 70.5 h is 23.5%.
The value for `CCOCc1ncn2c1CN(S(=O)(=O)c1ccc(OC)cc1)CC2` was -9.1%.
Consider `COc1cc(C(=O)N2CCCC(c3cc(C)[nH]n3)C2)ccc1C` (stereo not drawn), for which the cytotoxicity at 70.5 h turned out to be 19.1%.
As to `COCC1COCCC12CCN(S(=O)(=O)c1cccnc1)CC2` (stereo not drawn), the cytotoxicity at 70.5 h was -1.01%.
The value for `CCc1nc(C)c(C(=O)N2CCNCC2C(=O)NCc2ccncc2)o1` (stereo not drawn) was -5.31%; that for `CCOC(=O)CC(c1ccc(OC)cc1)c1c(O)n[nH]c1C` (stereo not drawn) was -13.7%.
The value for `CCCC(NC(=O)c1cc(C)ccc1C)c1nnn[nH]1` (stereo not drawn) was 13.6%.
To `CC(C)S(=O)(=O)C(C)C(=O)Nc1ccc2oc(C3CC3)nc2c1` (stereo not drawn) belongs -2.28%; to `CC(c1cccc(-c2ccc(C(=O)O)cc2Cl)c1)N(C)C` (stereo not drawn), -1.21%; to `O=C(C1SCCc2sccc21)N1CCN(CCO)CC1` (stereo not drawn), -2.81%.
With `Cc1cc(=O)n2nc(-c3cccs3)nc2n1CC(=O)NC(C)C`, the cytotoxicity at 70.5 h was -24%.
Regarding `CCCn1nc2c(cc1=O)CN(CCCS(N)(=O)=O)CC2`, the cytotoxicity at 70.5 h is 3.74%.
In the case of `COc1cc(S(=O)(=O)N2CCc3cc(Br)ccc32)cc(C(=O)O)c1OC`, the cytotoxicity at 70.5 h was -0.737%.
With `CN(Cc1ccc(F)cc1)CC1(O)CCCN(CC(C)(C)C)C1=O` (stereo not drawn), the cytotoxicity at 70.5 h is -6.42%.
Turning to `Fc1cnc(N2CCCC3(CCN(Cc4ccco4)C3)C2)nc1` (stereo not drawn), the cytotoxicity at 70.5 h turned out to be 10.4%.
As for `Cc1occc1C(=O)N1CCCN(Cc2ncc(Cl)n2C)CC1`, the cytotoxicity at 70.5 h was -7.84%.
As to `Nc1nc2c(c(N3CCCC(OCc4ccccn4)C3)n1)CCNCC2` (stereo not drawn), the cytotoxicity at 70.5 h is -6.98%.
To `Cn1cnc2c1C(COCC1CC1)CN(C(=O)Cc1ccsc1)C2` (stereo not drawn) belongs -3.95%; to `CCC[C@H]1CN(Cc2cscn2)C[C@@H]1NC(=O)C1(COC)CCC1`, -4.5%; to `O=C(NCCn1ccnc1)N1CCN(Cc2cccnc2)CC1`, -5.29%.
The value for `O=C(CCS(=O)(=O)C1CCCC1)N1CCCC1c1ccsc1` (stereo not drawn) was -4.99%; that for `CCOC1CCN(C(=O)c2ccc(-n3ncc(C#N)c3N)cc2)CC1` was -0.409%; that for `Cn1cc(C2CC3(CCN(C(=O)c4ccsc4)CC3)NC2=O)cn1` (stereo not drawn) was -0.304%.
Consider `CN(CCN1CCOC1=O)CC(=O)Nc1ccc(Cl)c(C(F)(F)F)c1`, for which the cytotoxicity at 70.5 h is -22%.
The value for `COCCNC(=O)C(C)n1cc(Br)cn1` (stereo not drawn) was -15.1%.
To `Cc1ccc(CC(=O)N2CCCn3nnc(Cn4cccn4)c3C2)cc1` belongs -9.04%.
As for `NS(=O)(=O)c1cc(C(=O)N2CCCC(n3ccnc3)C2)cs1` (stereo not drawn), the cytotoxicity at 70.5 h was -3.09%.
Regarding `CCOc1ccc(NC(=O)N2CCOC(C(N)=O)C2)cc1Cl` (stereo not drawn), the cytotoxicity at 70.5 h was 2.49%.
Take `O=S(=O)(CCO)Cc1ccc(OC(F)F)cc1`: the cytotoxicity at 70.5 h was -5.07%.
Consider `CC(C)Sc1ccc(C(C)Nc2nc3c(cnn3C)c(=O)[nH]2)cc1` (stereo not drawn), for which the cytotoxicity at 70.5 h is -3.27%.
Turning to `Cc1nccn1-c1cc(CNC(=O)CCC2CCCO2)ccn1` (stereo not drawn), the cytotoxicity at 70.5 h was found to be 43.5%.
The value for `COc1cccc(-c2nccc(C3CCCN3C)n2)c1` (stereo not drawn) was 26.3%.
To `COC(=O)C1CCN(CC2(c3ccc(C)cn3)CCNCC2)CC1` belongs -2.35%; to `Cc1cc(C(=O)N2CCO[C@H]3[C@H](OCCN(C)C)CC[C@@H]32)c(C)[nH]1`, -9.02%; to `Cc1cc(=O)n2nc(Oc3cccc(C(N)=O)c3)sc2n1`, -25%.
The value for `Cc1nc(NCCN2CCCC2=O)cc(C2CN(C)CCO2)n1` (stereo not drawn) was 1.86%.
With `CCc1noc(CN(C)C(=O)C2COc3ccccc3C2)n1` (stereo not drawn), the cytotoxicity at 70.5 h is -0.861%.
For the compound `Cc1cc(C(=O)N2C[C@@H](CN(C)CCN(C)C)[C@@H](CO)C2)nc(C)n1`, the cytotoxicity at 70.5 h was 21.1%.
For the compound `Cc1cc(CN2CCN(C(=O)Nc3cccnc3)CC2)on1`, the cytotoxicity at 70.5 h was -7.67%.
The value for `Cc1ncc2c(n1)CN(CC(O)COc1ccc(C#N)cc1)CC2` (stereo not drawn) was -3.74%; that for `CCCc1noc(CCC(=O)N2CCCC(n3ccnc3C)C2)n1` (stereo not drawn) was -9.38%; that for `NCC1CCCCN1C(=O)Cc1cccc(Cl)c1` (stereo not drawn) was -6.28%.
As for `O=C(Cc1noc(C(=O)NCC2CC2)n1)Nc1cccc(C(F)(F)F)c1`, the cytotoxicity at 70.5 h is -7.55%.
To `CC(C)NC(=O)N1CCC2(COCc3cnc(N4CCOCC4)nc32)C1` (stereo not drawn) belongs 2.23%.
In the case of `CCCc1cc(C(=O)NCCC2=CCCCC2)[nH]n1`, the cytotoxicity at 70.5 h is -9.53%.
Regarding `CC(C)C(C)NC(=O)Nc1ccc(CC(N)=O)cc1` (stereo not drawn), the cytotoxicity at 70.5 h was -3.59%.
